{"source": "patent US10709706B2", "about": "“Nuclear transport modulators and uses thereof” (Karyopharm Therapeutics Inc., priority 2015, dated 2020)", "format_in_all_cases": "cell-based", "key": {"Z138 cells": {"system": "Z138 cells", "experiment": "MTT cell proliferation assay, Z138 cells", "conditions": "Homo sapiens, Z-138, approximately 64-72 hours, 1 nM to 30 μM", "method": "(§1) The MTT cell proliferation assay was used to study the cytotoxic properties of the compounds. The assay was performed according to the method described by Roche Molecular Biochemicals, with minor modifications. The assay is based on the cleavage of the tetrazolium salt, MTT, in the presence of an electron-coupling reagent. The water-insoluble formazan salt produced must be solubilized in an additional step. Cells grown in a 96-well tissue culture plate were incubated with the MTT solution for approximately 4 hours. After this incubation period, a water-insoluble formazan dye formed. After solubilization, the formazan dye was quantitated using a scanning multi-well spectrophotometer (ELISA reader). […] The cells were seeded at 5,000-10,000 cells in each well of 96-well plate in 100 μL of fresh culture medium and were allowed to attach overnight. The stock solutions of the compounds were diluted in 100 μL cell culture medium to obtain eight concentrations of each test compound, ranging from 1 nM to 30 μM. […] All optical densities were measured at 490 nm using a Vmax Kinetic Microplate Reader (Molecular Devices). In most cases, the assay was performed in duplicate and the results were presented as a mean percent inhibition to the negative control±SE. The following formula was used to calculate the percent of inhibition: Inhibition (%)=(1−(ODo/OD))×100.\n(§2) The compounds were tested against Z138, MM1S and 3T3 cells. The Z138 cell line is a mature B-cell acute lymphoblastic leukemia cell line derived from a patient with chronic lymphocytic leukemia. The MM1S cell line was established from the peripheral blood of a human multiple myeloma patient. 3T3 cells are standard fibroblast cells; they were originally isolated from Swiss mouse embryo tissue."}, "MM1S cells": {"system": "MM1S cells", "experiment": "MTT cell proliferation assay, MM1S cells", "conditions": "Homo sapiens, MM1.S, MM1S multiple myeloma cells, approximately 64-72 hours, 1 nM to 30 μM", "method": "as §1, §2"}, "3T3 cells": {"system": "3T3 cells", "experiment": "MTT cell proliferation assay, 3T3 cells", "conditions": "Mus musculus, NIH3T3, 3T3 fibroblast cells, approximately 64-72 hours, 1 nM to 30 μM", "method": "as §1, §2"}}, "data": [{"smiles": "NC(=O)/C(=C/c1ccnc(-c2cc(C(F)(F)F)cc(C(F)(F)F)c2)n1)c1cccc(S(=O)(=O)N2CCC(F)CC2)c1", "note": "[Compound 131, (E)-3-(2-(3,5-bis(trifluoromethyl)phenyl)pyrimidin-4-yl)-2-(3-((4-fluoropiperidin-1-yl)sulfonyl)phenyl)acrylamide]", "values": [{"measurement": "IC50", "setting": "Z138 cells", "value": "> 30", "unit": "µM"}, {"measurement": "IC50", "setting": "MM1S cells", "value": "> 30", "unit": "µM"}, {"measurement": "IC50", "setting": "3T3 cells", "value": "> 30", "unit": "µM"}]}, {"smiles": "NC(=O)/C(=C/c1ccnc(-c2cc(C(F)(F)F)cc(C(F)(F)F)c2)n1)c1cccc(S(=O)(=O)N2CCOCC2)c1", "note": "[Compound 129, (E)-3-(2-(3,5-bis(trifluoromethyl)phenyl)pyrimidin-4-yl)-2-(3-(morpholinosulfonyl)phenyl)acrylamide]", "values": [{"measurement": "IC50", "setting": "Z138 cells", "value": "> 30", "unit": "µM"}, {"measurement": "IC50", "setting": "MM1S cells", "value": "> 30", "unit": "µM"}, {"measurement": "IC50", "setting": "3T3 cells", "value": "> 30", "unit": "µM"}]}, {"smiles": "NC(=O)/C(=C\\c1ccnc(-c2cc(C(F)(F)F)cc(C(F)(F)F)c2)n1)c1cncnc1", "note": "[Compound 107, (Z)-3-(2-(3,5-bis(trifluoromethyl)phenyl)pyrimidin-4-yl)-2-(pyrimidin-5-yl)acrylamide]", "values": [{"measurement": "IC50", "setting": "Z138 cells", "value": "5 to 30", "unit": "µM"}, {"measurement": "IC50", "setting": "MM1S cells", "value": "0.1 to 5", "unit": "µM"}, {"measurement": "IC50", "setting": "3T3 cells", "value": "> 30", "unit": "µM"}]}, {"smiles": "NC(=O)/C(=C/c1ccnc(-c2cc(C(F)(F)F)cc(C(F)(F)F)c2)n1)c1ccc(N2CCOCC2)cc1", "note": "[Compound 165, (E)-3-(2-(3,5-bis(trifluoromethyl)phenyl)pyrimidin-4-yl)-2-(4-morpholinophenyl)acrylamide]", "values": [{"measurement": "IC50", "setting": "Z138 cells", "value": "> 30", "unit": "µM"}, {"measurement": "IC50", "setting": "MM1S cells", "value": "> 30", "unit": "µM"}, {"measurement": "IC50", "setting": "3T3 cells", "value": "> 30", "unit": "µM"}]}, {"smiles": "CS(=O)(=O)Nc1cccc(/C(=C\\c2ccnc(-c3cc(C(F)(F)F)cc(C(F)(F)F)c3)n2)C(N)=O)c1", "note": "[Compound 144, (E)-3-(2-(3,5-bis(trifluoromethyl)phenyl)pyrimidin-4-yl)-2-(3-(methylsulfonamido)phenyl)acrylamide]", "values": [{"measurement": "IC50", "setting": "Z138 cells", "value": "> 30", "unit": "µM"}, {"measurement": "IC50", "setting": "MM1S cells", "value": "> 30", "unit": "µM"}, {"measurement": "IC50", "setting": "3T3 cells", "value": "> 30", "unit": "µM"}]}, {"smiles": "CCOC(=O)/C=C/c1ccnc(-c2cc(C(F)(F)F)cc(C(F)(F)F)c2)n1", "note": "[Compound 105, ethyl (E)-3-(2-(3,5-bis(trifluoromethyl)phenyl)pyrimidin-4-yl)acrylate]", "values": [{"measurement": "IC50", "setting": "Z138 cells", "value": "> 30", "unit": "µM"}, {"measurement": "IC50", "setting": "MM1S cells", "value": "> 30", "unit": "µM"}, {"measurement": "IC50", "setting": "3T3 cells", "value": "> 30", "unit": "µM"}]}, {"smiles": "NC(=O)/C(=C/c1ccnc(-c2cc(C(F)(F)F)cc(C(F)(F)F)c2)n1)c1ccc2cn[nH]c2c1", "note": "[Compound 140, (E)-3-(2-(3,5-bis(trifluoromethyl)phenyl)pyrimidin-4-yl)-2-(1H-indazol-6-yl)acrylamide]", "values": [{"measurement": "IC50", "setting": "Z138 cells", "value": "0.1 to 5", "unit": "µM"}, {"measurement": "IC50", "setting": "MM1S cells", "value": "> 30", "unit": "µM"}, {"measurement": "IC50", "setting": "3T3 cells", "value": "> 30", "unit": "µM"}]}, {"smiles": "NC(=O)/C(=C/c1ccnc(-c2cc(C(F)(F)F)cc(C(F)(F)F)c2)n1)c1cnc(Cl)nc1", "note": "[Compound 149, (E)-3-(2-(3,5-bis(trifluoromethyl)phenyl)pyrimidin-4-yl)-2-(2-chloropyrimidin-5-yl)acrylamide]", "values": [{"measurement": "IC50", "setting": "Z138 cells", "value": "0.1 to 5", "unit": "µM"}, {"measurement": "IC50", "setting": "MM1S cells", "value": "0.1 to 5", "unit": "µM"}, {"measurement": "IC50", "setting": "3T3 cells", "value": "> 30", "unit": "µM"}]}, {"smiles": "NC(=O)/C(=C/c1ccnc(-c2cc(C(F)(F)F)cc(C(F)(F)F)c2)n1)c1cncc2ccccc12", "note": "[Compound 158, (E)-3-(2-(3,5-bis(trifluoromethyl)phenyl)pyrimidin-4-yl)-2-(isoquinolin-4-yl)acrylamide]", "values": [{"measurement": "IC50", "setting": "Z138 cells", "value": "< 0.1", "unit": "µM"}, {"measurement": "IC50", "setting": "MM1S cells", "value": "< 0.1", "unit": "µM"}, {"measurement": "IC50", "setting": "3T3 cells", "value": "> 30", "unit": "µM"}]}, {"smiles": "N#Cc1cncc(/C(=C\\c2ccnc(-c3cc(C(F)(F)F)cc(C(F)(F)F)c3)n2)C(N)=O)c1", "note": "[Compound 119, (E)-3-(2-(3,5-bis(trifluoromethyl)phenyl)pyrimidin-4-yl)-2-(5-cyanopyridin-3-yl)acrylamide]", "values": [{"measurement": "IC50", "setting": "Z138 cells", "value": "0.1 to 5", "unit": "µM"}, {"measurement": "IC50", "setting": "MM1S cells", "value": "0.1 to 5", "unit": "µM"}, {"measurement": "IC50", "setting": "3T3 cells", "value": "> 30", "unit": "µM"}]}, {"smiles": "NC(=O)/C(=C/c1ccnc(-c2cc(C(F)(F)F)cc(C(F)(F)F)c2)n1)c1ccc(S(=O)(=O)C2CC2)cc1", "note": "[Compound 122, (E)-3-(2-(3,5-bis(trifluoromethyl)phenyl)pyrimidin-4-yl)-2-(4-(cyclopropylsulfonyl)phenyl)acrylamide]", "values": [{"measurement": "IC50", "setting": "Z138 cells", "value": "0.1 to 5", "unit": "µM"}, {"measurement": "IC50", "setting": "MM1S cells", "value": "5 to 30", "unit": "µM"}, {"measurement": "IC50", "setting": "3T3 cells", "value": "> 30", "unit": "µM"}]}, {"smiles": "NC(=O)/C(=C/c1ccnc(-c2cc(C(F)(F)F)cc(C(F)(F)F)c2)n1)c1cc2ccccc2o1", "note": "[Compound 136, (E)-2-(benzofuran-2-yl)-3-(2-(3,5-bis(trifluoromethyl)phenyl)pyrimidin-4-yl)acrylamide]", "values": [{"measurement": "IC50", "setting": "Z138 cells", "value": "0.1 to 5", "unit": "µM"}, {"measurement": "IC50", "setting": "MM1S cells", "value": "0.1 to 5", "unit": "µM"}, {"measurement": "IC50", "setting": "3T3 cells", "value": "5 to 30", "unit": "µM"}]}, {"smiles": "CCOC(=O)C(Br)C(Br)c1ccnc(-c2cc(C(F)(F)F)cc(C(F)(F)F)c2)n1", "note": "(stereo not drawn) [Compound 106, ethyl 3-(2-(3,5-bis(trifluoromethyl)phenyl)pyrimidin-4-yl)-2,3-dibromopropanoate]", "values": [{"measurement": "IC50", "setting": "Z138 cells", "value": "0.1 to 5", "unit": "µM"}, {"measurement": "IC50", "setting": "MM1S cells", "value": "0.1 to 5", "unit": "µM"}, {"measurement": "IC50", "setting": "3T3 cells", "value": "> 30", "unit": "µM"}]}, {"smiles": "NC(=O)/C(=C/c1ccnc(-c2cc(C(F)(F)F)cc(C(F)(F)F)c2)n1)c1cc(F)nc(F)c1", "note": "[Compound 152, (E)-3-(2-(3,5-bis(trifluoromethyl)phenyl)pyrimidin-4-yl)-2-(2,6-difluoropyridin-4-yl)acrylamide]", "values": [{"measurement": "IC50", "setting": "Z138 cells", "value": "0.1 to 5", "unit": "µM"}, {"measurement": "IC50", "setting": "MM1S cells", "value": "0.1 to 5", "unit": "µM"}, {"measurement": "IC50", "setting": "3T3 cells", "value": "> 30", "unit": "µM"}]}, {"smiles": "NC(=O)/C(=C\\c1nccc(-c2cc(C(F)(F)F)cc(C(F)(F)F)c2)n1)c1cncnc1", "note": "[Compound 110, (Z)-3-(4-(3,5-bis(trifluoromethyl)phenyl)pyrimidin-2-yl)-2-(pyrimidin-5-yl)acrylamide]", "values": [{"measurement": "IC50", "setting": "Z138 cells", "value": "> 30", "unit": "µM"}, {"measurement": "IC50", "setting": "MM1S cells", "value": "> 30", "unit": "µM"}, {"measurement": "IC50", "setting": "3T3 cells", "value": "> 30", "unit": "µM"}]}]}
